In BindingDB's records for doi:10.1111/cbdd.12793 (Nanjing University, 2016):
pIC50: −log10 of the molar value.

biological target: Tyrosine--tRNA ligase (Staphylococcus aureus (strain MSSA476), UniProt Q6G8J9); test: In vitro Enzyme Inhibition Assay; details: pH 7.9
Experimental: The assays were conducted at 37 °C in a mixture containing 100 mM Tris/Cl pH 7.9, 50 mM KCl, 16 mM MgCl2, 5 mM ATP, 3 mM DTT, 4 mg/ml E. coli MRE600 tRNA (Roche) and 10 μM L-tyrosine (0.3 μM L-[ring-3,5-3H] tyrosine (PerkinElmer, Specific activity: 1.48-2.22 TBq/mmol), 10 μM carrier). Above all, TyrRS (0.2 nM) was pre-incubated with kinds of concentrations inhibitor for 10 min (RT) followed by the addition of pre-warmed mixture and moved them together to 37 °C. After specific intervals, the reaction was ended by the addition of aliquots of the reaction mix into gelid 7% trichloroacetic acid and harvested onto […] hydrophilic Durapore filters (Millipore Multiscreen 96-well plates) and counted by liquid scintillation.

SMILES | pIC50
Cc1ncc([N+](=O)[O-])n1CCOC(=O)c1cc(-c2ccc(Cl)cc2)n(-c2ccc(Cl)cc2)n1 [2-(2-Methyl-5-nitro-1H-imidazol-1-yl)-ethyl-1,5-bis(4-chlorophenyl)-1H-pyrazole-3-carboxylate (4n)] | 4.27
Cc1ccc(-c2cc(C(=O)OCCn3c([N+](=O)[O-])cnc3C)nn2-c2ccc(C)cc2)cc1 [2-(2-Methyl-5-nitro-1H-imidazol-1-yl)-ethyl-1,5-di-p-tolyl-1H-pyrazole-3-carboxylate (4b)] | 4.50
Cc1ncc([N+](=O)[O-])n1CCOC(=O)c1cc(-c2ccccc2)n(-c2ccccc2)n1 [2-(2-Methyl-5-nitro-1H-imidazol-1-yl)-ethyl-1,5-diphenyl-1H-pyrazole-3-carboxylate (4r)] | 4.20
Cc1ncc([N+](=O)[O-])n1CCOC(=O)c1cc(-c2ccccc2F)n(-c2ccc(Cl)cc2)n1 [2-(2-Methyl-5-nitro-1H-imidazol-1-yl)-ethyl-1-(4-chlorophenyl)-5-(2-fluorophenyl)-1H-pyrazole-3-carboxylate (4u)] | 4.12
Cc1ncc([N+](=O)[O-])n1CCOC(=O)c1cc(-c2cccc(F)c2)n(-c2ccc(Cl)cc2)n1 [2-(2-Methyl-5-nitro-1H-imidazol-1-yl)-ethyl-1-(4-chlorophenyl)-5-(3-fluorophenyl)-1H-pyrazole-3-carboxylate (4y)] | 4.22
Cc1ncc([N+](=O)[O-])n1CCOC(=O)c1cc(-c2ccc(F)cc2)n(-c2ccc(Cl)cc2)n1 [2-(2-Methyl-5-nitro-1H-imidazol-1-yl)-ethyl-1-(4-chlorophenyl)-5-(4-fluorophenyl)-1H-pyrazole-3-carboxylate (4m)] | 4.19
Cc1ncc([N+](=O)[O-])n1CCOC(=O)c1cc(-c2ccc(I)cc2)n(-c2ccc(Cl)cc2)n1 [2-(2-Methyl-5-nitro-1H-imidazol-1-yl)-ethyl-1-(4-chlorophenyl)-5-(4-iodophenyl)-1H-pyrazole-3-carboxylate (4o)] | 4.88
COc1ccc(-c2cc(C(=O)OCCn3c([N+](=O)[O-])cnc3C)nn2-c2ccc(Cl)cc2)cc1 [2-(2-Methyl-5-nitro-1H-imidazol-1-yl)-ethyl-1-(4-chlorophenyl)-5-(4-methoxyphenyl)-1H-pyrazole-3-carboxylate (4k)] | 5.78
Cc1cccc(-c2cc(C(=O)OCCn3c([N+](=O)[O-])cnc3C)nn2-c2ccc(Cl)cc2)c1 [2-(2-Methyl-5-nitro-1H-imidazol-1-yl)-ethyl-1-(4-chlorophenyl)-5-(m-tolyl)-1H-pyrazole-3-carboxylate (4w)] | 4.53
Cc1ccccc1-c1cc(C(=O)OCCn2c([N+](=O)[O-])cnc2C)nn1-c1ccc(Cl)cc1 [2-(2-Methyl-5-nitro-1H-imidazol-1-yl)-ethyl-1-(4-chlorophenyl)-5-(o-tolyl)-1H-pyrazole-3-carboxylate (4q)] | 5.29
Cc1ccc(-c2cc(C(=O)OCCn3c([N+](=O)[O-])cnc3C)nn2-c2ccc(Cl)cc2)cc1 [2-(2-Methyl-5-nitro-1H-imidazol-1-yl)-ethyl-1-(4-chlorophenyl)-5-(p-tolyl)-1H-pyrazole-3-carboxylate (4l)] | 4.74
Cc1ncc([N+](=O)[O-])n1CCOC(=O)c1cc(-c2ccccc2)n(-c2ccc(Cl)cc2)n1 [2-(2-Methyl-5-nitro-1H-imidazol-1-yl)-ethyl-1-(4-chlorophenyl)-5-phenyl-1H-pyrazole-3-carboxylate (4s)] | 4.78
Cc1cccc(-c2cc(C(=O)OCCn3c([N+](=O)[O-])cnc3C)nn2-c2ccccc2)c1 [2-(2-Methyl-5-nitro-1H-imidazol-1-yl)-ethyl-1-phenyl-5-(m-tolyl)-1H-pyrazole-3-carboxylate (4v)] | 4.67
Cc1ccccc1-c1cc(C(=O)OCCn2c([N+](=O)[O-])cnc2C)nn1-c1ccccc1 [2-(2-Methyl-5-nitro-1H-imidazol-1-yl)-ethyl-1-phenyl-5-(o-tolyl)-1H-pyrazole-3-carboxylate (4p)] | 5.34
Cc1ccc(-c2cc(C(=O)OCCn3c([N+](=O)[O-])cnc3C)nn2-c2ccccc2)cc1 [2-(2-Methyl-5-nitro-1H-imidazol-1-yl)-ethyl-1-phenyl-5-(p-tolyl)-1H-pyrazole-3-carboxylate (4g)] | 4.22
Cc1ncc([N+](=O)[O-])n1CCOC(=O)c1cc(-c2ccccc2F)n(-c2ccccc2)n1 [2-(2-Methyl-5-nitro-1H-imidazol-1-yl)-ethyl-5-(2-fluorophenyl)-1-phenyl-1H-pyrazole-3-carboxylate (4t)] | 4.02

More lines, now with the values ahead:

pIC50 | SMILES
4.08 | Cc1ncc([N+](=O)[O-])n1CCOC(=O)c1cc(-c2cccc(F)c2)n(-c2ccccc2)n1 [2-(2-Methyl-5-nitro-1H-imidazol-1-yl)-ethyl-5-(3-fluorophenyl)-1-phenyl-1H-pyrazole-3-carboxylate (4x)]
4.32 | Cc1ccc(-n2nc(C(=O)OCCn3c([N+](=O)[O-])cnc3C)cc2-c2ccc(Cl)cc2)cc1 [2-(2-Methyl-5-nitro-1H-imidazol-1-yl)-ethyl-5-(4-chlorophenyl)-1-(p-tolyl)-1H-pyrazole-3-carboxylate (4d)]
4.67 | Cc1ncc([N+](=O)[O-])n1CCOC(=O)c1cc(-c2ccc(Cl)cc2)n(-c2ccccc2)n1 [2-(2-Methyl-5-nitro-1H-imidazol-1-yl)-ethyl-5-(4-chlorophenyl)-1-phenyl-1H-pyrazole-3-carboxylate (4i)]
4.25 | Cc1ccc(-n2nc(C(=O)OCCn3c([N+](=O)[O-])cnc3C)cc2-c2ccc(F)cc2)cc1 [2-(2-Methyl-5-nitro-1H-imidazol-1-yl)-ethyl-5-(4-fluorophenyl)-1-(p-tolyl)-1H-pyrazole-3-carboxylate (4c)]
4.15 | Cc1ncc([N+](=O)[O-])n1CCOC(=O)c1cc(-c2ccc(F)cc2)n(-c2ccccc2)n1 [2-(2-Methyl-5-nitro-1H-imidazol-1-yl)-ethyl-5-(4-fluorophenyl)-1-phenyl-1H-pyrazole-3-carboxylate (4h)]
4.39 | Cc1ccc(-n2nc(C(=O)OCCn3c([N+](=O)[O-])cnc3C)cc2-c2ccc(I)cc2)cc1 [2-(2-Methyl-5-nitro-1H-imidazol-1-yl)-ethyl-5-(4-iodophenyl)-1-(p-tolyl)-1H-pyrazole-3-carboxylate (4e)]
4.44 | Cc1ncc([N+](=O)[O-])n1CCOC(=O)c1cc(-c2ccc(I)cc2)n(-c2ccccc2)n1 [2-(2-Methyl-5-nitro-1H-imidazol-1-yl)-ethyl-5-(4-iodophenyl)-1-phenyl-1H-pyrazole-3-carboxylate (4j)]
4.97 | COc1ccc(-c2cc(C(=O)OCCn3c([N+](=O)[O-])cnc3C)nn2-c2ccc(C)cc2)cc1 [2-(2-Methyl-5-nitro-1H-imidazol-1-yl)-ethyl-5-(4-methoxyphenyl)-1-(p-tolyl)-1H-pyrazole-3-carboxylate (4a)]
6.04 | COc1ccc(-c2cc(C(=O)OCCn3c([N+](=O)[O-])cnc3C)nn2-c2ccccc2)cc1 [2-(2-Methyl-5-nitro-1H-imidazol-1-yl)-ethyl-5-(4-methoxyphenyl)-1-phenyl-1H-pyrazole-3-carboxylate (4f)]
